Laboratory results: patent publication US6656509B1, “Combination of selenium-containing compounds with cytostatics” (Biosyn Arzneimittel GmbH, priority 1998, dated 2003)

Columns and labels:
[1] = tested on: pancreatic cancer xenograft PAXF 546; assay: clonogenic assay, single agents and combination studies; format: cell-based, human
Description: (§1) The cell mixture was passed through sieves of 200 μm and 50 μm mesh size and washed thereafter twice with PBS. The percentage of viable cells was determined in a Neubauer counting chamber using trypan blue exclusion.
(§2) 8×10^3 to 1,6×10^4 cells were added to 0.2 ml of the same culture medium together with 0.4% agar and placed in already coated 24-multiwell dishes. Test substances were applied by continuous exposure (drug overlay) in 0.2 ml medium. Every dish included six control wells containing the vehicle- and drug-treated groups in triplicate at six concentrations.
(§3) Cultures were incubated at 37° and 7% CO2 in a humidified atmosphere for 5 to 15 days (depending on the doubling time of the tumor stem cells) and monitored for colony growth using an inverted microscope. Within this period, in vitro tumor growth led to the formation of colonies with a diameter of ≧50 μm. At the time of maximum colony formation counts were performed with an automatic image analysis system (OMNICOM Fas IV, Biosys GmbH). […] Drug effects were expressed in terms of the percentage of surviving cells, obtained by comparison of the mean number of colonies in the treated plates with the mean colony count of the untreated controls (test-versus-control-group value, T/C=colony countTreated Group*100/colony countControl Group).
(§4) Coefficient of variation in the control group ≦50%. IC50 and IC70 values were determined by plotting compound concentration versus cell survival rate. Mean IC50 and IC70 values were calculated according to the formula: [formula]
(§5) with x=specific tumor xenograft and n=total number of tumor xenografts studied. If an IC50 or IC70 value could not be determined within the examined dose range, the lowest or highest concentration studied was used for the calculation.
(§6) Each experiment included the chemotherapeutic agents in 6 concentrations, selenium in 2 concentrations (3 and 30 μM), and the combination of all doses with selenium at 3 and 30 μM. All compounds and combinations were studied in triplicates. […] Each experiment was performed twice.
(§7) T/Cexpectd(A+B)=T/C(A)×T/C(B)/100
(§8) For a zero-interactive drug combination (additivity of drug effects) T/Cexpected(A+B)[…]T/Cobserved(A+B). A drug combination is synergistic if T/Cobserved(A+B) is statistically significant[…]T/Cexpected(A+B). Statistical significance was determined by the T-test.

[2] = tested on: pancreatic cancer xenograft PAXF 736; assay: as above; format: cell-based, human
Description: as §1, §2, §3, §4, §5, §6, §7, §8

[3] = oral; cited from earlier work

SMILES: O=[Se]([O-])[O-].[Na+].[Na+] [sodium selenite]
- Sodium selenite T/C in % ([1]; 3.0 μM alone, X261, X295): 91 ± 8%
- Sodium selenite T/C in % ([1]; 30.0 μM alone, X261): 80 ± 13%
- Sodium selenite T/C in % ([1]; 30.0 μM alone, X295): 49 ± 6%
- Test/control (%) at drug concentration [μM] 1. ([1]; PAXF 546/2, *(2)): 104%
- Test/control (%) at drug concentration [μM] 10. ([1]; PAXF 546/2, *(2)): 88%
- Test/control (%) at drug concentration [μM] 100. ([1]; PAXF 546/2, *(2)): 2%
- Test/control (%) at drug concentration [μM] .001 ([1]; PAXF 546/2, *(2)): 82%
- Test/control (%) at drug concentration [μM] .01 ([1]; PAXF 546/2, *(2)): 112%
- Test/control (%) at drug concentration [μM] .1 ([1]; PAXF 546/2, *(2)): 100%
- Test/control (%) class at drug concentration [μM] 1. ([1]; PAXF 546/2, *(2)): − (− (T/C ≧ 50%))
- Test/control (%) class at drug concentration [μM] 10. ([1]; PAXF 546/2, *(2)): − (− (T/C ≧ 50%))
- Test/control (%) class at drug concentration [μM] 100. ([1]; PAXF 546/2, *(2)): +++ (+++ (T/C ≦ 10%))
- Test/control (%) class at drug concentration [μM] .001 ([1]; PAXF 546/2, *(2)): − (− (T/C ≧ 50%))
- Test/control (%) class at drug concentration [μM] .01 ([1]; PAXF 546/2, *(2)): − (− (T/C ≧ 50%))
- Test/control (%) class at drug concentration [μM] .1 ([1]; PAXF 546/2, *(2)): − (− (T/C ≧ 50%))
- Sodium selenite T/C in % ([2]; 3.0 μM alone, X265, X290): 81 ± 12%
- Sodium selenite T/C in % ([2]; 30.0 μM alone, X265): 43 ± 8%
- Sodium selenite T/C in % ([2]; 30.0 μM alone, X290): 5 ± 2%
- Sodium selenite T/C in % ([2]; 30.0 μM alone, X290, listed as selenium): 5%
- Test/control (%) at drug concentration [μM] 1. ([2]; PAXF 736/17, X184AM): 88%
- Test/control (%) at drug concentration [μM] 10. ([2]; PAXF 736/17, X184AM): 90%
- Test/control (%) at drug concentration [μM] 100. ([2]; PAXF 736/17, X184AM): 4%
- Test/control (%) at drug concentration [μM] .001 ([2]; PAXF 736/17, X184AM): 87%
- Test/control (%) at drug concentration [μM] .01 ([2]; PAXF 736/17, X184AM): 77%
- Test/control (%) at drug concentration [μM] .1 ([2]; PAXF 736/17, X184AM): 94%
- Test/control (%) class at drug concentration [μM] 1. ([2]; PAXF 736/17, X184AM): − (− (T/C ≧ 50%))
- Test/control (%) class at drug concentration [μM] 10. ([2]; PAXF 736/17, X184AM): − (− (T/C ≧ 50%))
- Test/control (%) class at drug concentration [μM] 100. ([2]; PAXF 736/17, X184AM): +++ (+++ (T/C ≦ 10%))
- Test/control (%) class at drug concentration [μM] .001 ([2]; PAXF 736/17, X184AM): − (− (T/C ≧ 50%))
- Test/control (%) class at drug concentration [μM] .01 ([2]; PAXF 736/17, X184AM): − (− (T/C ≧ 50%))
- Test/control (%) class at drug concentration [μM] .1 ([2]; PAXF 736/17, X184AM): − (− (T/C ≧ 50%))
- intestinal absorption, sometimes [3]: over 90%
